Source: patent US11226337B2, “Chemoproteomic profiling of protein electrophilic and oxidative post-translational modifications” (Zenagem, LLC, priority 2017, dated 2022)

How the values were obtained:
Assay in all cases: SILAC RP-ABPP
Format in all cases: cell-based
[1] = target: T1, ACAA1 3ketoacylCoA thiolase, peroxisomal (P09110) (Homo sapiens, UniProt P09110); settings: SILAC H/L, MDA-MB-231
T1 construct: endogenous in cells; host or cells: HEK293T or MDA-MB-231
Procedure: (§1) For MS-based experiments, labelling was performed in a similar manner as described above in Example 2, maintaining the same concentrations of probes. Modifications to this protocol included using isotopically ‘light’ and ‘heavy’ SILAC cells that were also grown to near complete confluence prior to treatment. Isotopically light cells were treated with the non-clickable hydrazine probe (at the same concentration as the probe in ‘enrichment’ experiments) or the probe in the presence of 10-fold excess non-clickable hydrazine probe as a competitor (in ‘competition’ experiments). Isotopically heavy cells were treated with the probe for both types of experiments. These treatments were performed in non-SILAC media. Following treatments, cells were washed with cold PBS to remove the probe-containing media, harvested by scraping, collected by centrifugation (1,400 g, 3 min, 4° C.), washed again by resuspension in cold PBS and frozen as pellets at −80° C. until use.
(§2) The fractionated equimolar mixture of heavy and light soluble proteomes (1-1.5 mg) was diluted to 1 mL in PBS. Click reactions were scaled accordingly (except for biotin-azide) to maintain final concentrations of 0.1 mM TBTA, 1 mM CuSO4, 100 μM biotin-azide (10 mM in DMSO) and 1 mM TCEP. The mixture was vortexed and placed on a rotator at ambient temperature for 1 hour. Sequential addition of and mixture with pre-chilled methanol (MeOH, 2 mL), chloroform (CHCl3, 0.5 mL) and PBS (1 mL) on ice quenched the reaction. The precipitated proteome was centrifuged (5,000 g, 10 min, 4° C.) to fractionate the protein interphase from the organic and aqueous solvent layers. The protein pellet was washed with cold 1:1 MeOH:CHCl3 (3×1 mL), mildly sonicated in cold 4:1 MeOH:CHCl3 (2.5 mL) and pelleted once more by centrifugation (5,000 g, 10 min, 4° C.) to ensure click reagents were efficiently removed.
(§3) Heavy and light parent ion chromatograms associated with successfully identified peptides were extracted and compared using CIMAGE software as previously described^69. At least one ion of a co-eluting heavy-light pair must be accurately identified from a fragmentation event that occurred within the retention time window (±10 min) of parent ion elution. To ensure that the correct pair of peaks is quantified, chromatograms are extracted within a 10 ppm error tolerance of the predicted m/z, the signal-to-noise ratio must be >2.5 and the ‘co-elution correlation score’ and ‘envelope correlation score’ must have R^2 values ≥0.8. In addition, peptides detected as ‘singletons,’ where only the heavy ion of a peptide pair was identified, but for which passed all other filtering parameters, are given a default assigned ratio of ‘20,’ which is defined as any measured ratio that is ≥20.
(§4) To further eliminate false positives and any stochastic variability in the data, protein ratios were then determined by the median peptide ratio derived from three or more unique quantified peptides. Protein ratios that complied with these criteria from a single experiment were then averaged with ratios acquired from ≥3 replicates to provide final values for each type of experiment in both cell lines with both probes. […] Most importantly, there are no robustly measured ratios for proteins identified as probe 1 targets that had measured ratios of ˜1 with probe 2. Probe targets in HEK293T and MDA-MB-231 cells represent data combined from ≥3 independent biological replicates with each cell type performed with several independent batches of synthesized probes over a period of almost two years.
(§5) Analogous experiments were also performed with the aryl hydrazine probe 2 (1 mM, 0.5 hour), which furnished a larger list of high-reactivity proteins (33 in total; Table 3) that contained several of the targets of probe 1 (compared in Table 4), as well as additional proteins that may reflect an expanded chemical reactivity for probe 2.

[2] = target: T2, ACOX1 Peroxisomal acylcoenzyme A oxidase 1 (Q15067) (Homo sapiens, UniProt Q15067); settings: SILAC H/L, HEK293T
T2 construct: In Situ Labelling of Cells with Hydrazine Probes for MS Experiments; endogenous in cells; host or cells: HEK293T and/or MDA-MB-231
T2 sequence (Q15067 whole entry): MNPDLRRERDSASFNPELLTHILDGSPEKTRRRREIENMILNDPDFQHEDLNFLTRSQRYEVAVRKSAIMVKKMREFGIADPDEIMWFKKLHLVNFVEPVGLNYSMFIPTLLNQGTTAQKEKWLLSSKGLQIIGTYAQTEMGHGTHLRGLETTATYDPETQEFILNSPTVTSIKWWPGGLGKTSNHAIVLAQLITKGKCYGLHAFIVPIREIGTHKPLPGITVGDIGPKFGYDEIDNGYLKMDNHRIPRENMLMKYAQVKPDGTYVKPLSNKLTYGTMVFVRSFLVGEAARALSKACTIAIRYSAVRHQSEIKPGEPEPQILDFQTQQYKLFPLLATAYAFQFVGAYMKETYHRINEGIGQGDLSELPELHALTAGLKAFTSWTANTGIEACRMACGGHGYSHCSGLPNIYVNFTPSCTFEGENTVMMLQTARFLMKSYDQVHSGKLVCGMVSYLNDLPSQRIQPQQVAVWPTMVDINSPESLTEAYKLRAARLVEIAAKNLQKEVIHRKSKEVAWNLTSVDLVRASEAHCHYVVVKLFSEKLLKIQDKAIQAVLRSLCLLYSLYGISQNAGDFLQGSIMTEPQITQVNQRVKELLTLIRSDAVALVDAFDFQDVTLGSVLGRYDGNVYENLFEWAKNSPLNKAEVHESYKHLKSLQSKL
Procedure: as §1, §2, §3, §4, §5

[3] = target: T3, ACOX3 Peroxisomal acylcoenzyme A oxidase 3 (O15254) (Homo sapiens, UniProt O15254); settings: SILAC H/L, MDA-MB-231
T3 construct: endogenous in cells; host or cells: HEK293T or MDA-MB-231
T3 sequence (O15254 whole entry): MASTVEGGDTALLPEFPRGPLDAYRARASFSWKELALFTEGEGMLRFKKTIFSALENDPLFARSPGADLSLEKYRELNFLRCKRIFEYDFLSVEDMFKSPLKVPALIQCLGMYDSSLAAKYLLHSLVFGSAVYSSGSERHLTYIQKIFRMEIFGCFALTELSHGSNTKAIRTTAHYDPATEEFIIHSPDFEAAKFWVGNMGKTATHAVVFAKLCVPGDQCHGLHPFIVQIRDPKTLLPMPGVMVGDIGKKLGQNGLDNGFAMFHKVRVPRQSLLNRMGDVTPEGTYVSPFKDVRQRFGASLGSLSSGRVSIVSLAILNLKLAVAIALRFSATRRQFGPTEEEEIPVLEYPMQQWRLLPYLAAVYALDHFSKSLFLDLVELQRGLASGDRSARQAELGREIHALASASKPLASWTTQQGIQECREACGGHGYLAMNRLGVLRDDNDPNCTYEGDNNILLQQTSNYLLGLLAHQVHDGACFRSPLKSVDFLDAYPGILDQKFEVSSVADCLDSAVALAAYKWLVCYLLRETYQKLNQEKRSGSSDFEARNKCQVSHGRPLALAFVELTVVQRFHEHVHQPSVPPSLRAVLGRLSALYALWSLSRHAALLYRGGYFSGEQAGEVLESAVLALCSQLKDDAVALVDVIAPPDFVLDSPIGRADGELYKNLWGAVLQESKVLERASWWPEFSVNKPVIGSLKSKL
Procedure: as §1, §2, §3, §4, §5

[4] = target: T4, ALKBH1 Alkylated DNA repair protein alkB (Q13686) (Homo sapiens, UniProt Q13686); settings: SILAC H/L, HEK293T
T4 construct: In Situ Labelling of Cells with Hydrazine Probes for MS Experiments; endogenous in cells
T4 sequence (Q13686 whole entry): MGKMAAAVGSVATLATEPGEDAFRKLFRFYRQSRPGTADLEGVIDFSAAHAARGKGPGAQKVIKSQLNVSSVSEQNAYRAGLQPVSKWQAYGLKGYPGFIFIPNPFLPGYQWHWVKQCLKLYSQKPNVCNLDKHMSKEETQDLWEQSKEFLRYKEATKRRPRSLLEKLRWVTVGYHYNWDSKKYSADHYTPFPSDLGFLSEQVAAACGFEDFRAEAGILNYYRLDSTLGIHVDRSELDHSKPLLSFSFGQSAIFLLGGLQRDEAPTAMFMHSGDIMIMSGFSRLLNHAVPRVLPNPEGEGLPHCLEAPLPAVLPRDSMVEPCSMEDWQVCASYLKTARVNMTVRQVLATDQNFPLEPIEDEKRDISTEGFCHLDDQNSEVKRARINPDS
Procedure: as §1, §2, §3, §4, §5

[5] = target: T5, CYP51A1 Lanosterol 14alpha demethylase (Q16850) (Homo sapiens, UniProt Q16850); settings: SILAC H/L, HEK293T
T5 construct: In Situ Labelling of Cells with Hydrazine Probes for MS Experiments; endogenous in cells; host or cells: HEK293T and/or MDA-MB-231
Procedure: as §1, §2, §3, §4, §5

[6] = target: T6, FADS2 Fatty acid desaturase 2 (O95864) (Homo sapiens, UniProt O95864); settings: SILAC H/L, HEK293T
T6 construct: In Situ Labelling of Cells with Hydrazine Probes for MS Experiments; endogenous in cells; host or cells: HEK293T and/or MDA-MB-231
T6 sequence (O95864 whole entry): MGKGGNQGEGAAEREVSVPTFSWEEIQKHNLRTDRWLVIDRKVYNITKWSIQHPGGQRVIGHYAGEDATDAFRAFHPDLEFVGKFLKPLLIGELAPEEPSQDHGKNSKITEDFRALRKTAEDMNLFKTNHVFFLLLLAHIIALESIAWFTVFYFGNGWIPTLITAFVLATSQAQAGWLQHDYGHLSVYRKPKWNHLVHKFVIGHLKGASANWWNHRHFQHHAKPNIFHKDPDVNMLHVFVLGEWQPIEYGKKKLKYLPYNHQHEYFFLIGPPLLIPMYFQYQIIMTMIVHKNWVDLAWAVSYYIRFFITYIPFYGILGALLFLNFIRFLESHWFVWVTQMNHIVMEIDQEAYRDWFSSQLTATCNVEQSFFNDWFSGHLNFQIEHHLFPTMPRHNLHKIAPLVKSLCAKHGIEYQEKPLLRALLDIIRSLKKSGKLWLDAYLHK
Procedure: as §1, §2, §3, §4, §5

[7] = target: T7, FTL Ferritin light chain (P02792) (Homo sapiens, UniProt P02792); settings: SILAC H/L, MDA-MB-231
T7 construct: endogenous in cells; host or cells: HEK293T or MDA-MB-231
Procedure: as §1, §2, §3, §4, §5

[8] = target: T8, KDM1B Lysinespecific histone demethylase 1B (Q8NB78) (Homo sapiens, UniProt Q8NB78); settings: SILAC H/L, HEK293T
T8 construct: In Situ Labelling of Cells with Hydrazine Probes for MS Experiments; endogenous in cells; host or cells: HEK293T and/or MDA-MB-231
T8 sequence (Q8NB78 whole entry): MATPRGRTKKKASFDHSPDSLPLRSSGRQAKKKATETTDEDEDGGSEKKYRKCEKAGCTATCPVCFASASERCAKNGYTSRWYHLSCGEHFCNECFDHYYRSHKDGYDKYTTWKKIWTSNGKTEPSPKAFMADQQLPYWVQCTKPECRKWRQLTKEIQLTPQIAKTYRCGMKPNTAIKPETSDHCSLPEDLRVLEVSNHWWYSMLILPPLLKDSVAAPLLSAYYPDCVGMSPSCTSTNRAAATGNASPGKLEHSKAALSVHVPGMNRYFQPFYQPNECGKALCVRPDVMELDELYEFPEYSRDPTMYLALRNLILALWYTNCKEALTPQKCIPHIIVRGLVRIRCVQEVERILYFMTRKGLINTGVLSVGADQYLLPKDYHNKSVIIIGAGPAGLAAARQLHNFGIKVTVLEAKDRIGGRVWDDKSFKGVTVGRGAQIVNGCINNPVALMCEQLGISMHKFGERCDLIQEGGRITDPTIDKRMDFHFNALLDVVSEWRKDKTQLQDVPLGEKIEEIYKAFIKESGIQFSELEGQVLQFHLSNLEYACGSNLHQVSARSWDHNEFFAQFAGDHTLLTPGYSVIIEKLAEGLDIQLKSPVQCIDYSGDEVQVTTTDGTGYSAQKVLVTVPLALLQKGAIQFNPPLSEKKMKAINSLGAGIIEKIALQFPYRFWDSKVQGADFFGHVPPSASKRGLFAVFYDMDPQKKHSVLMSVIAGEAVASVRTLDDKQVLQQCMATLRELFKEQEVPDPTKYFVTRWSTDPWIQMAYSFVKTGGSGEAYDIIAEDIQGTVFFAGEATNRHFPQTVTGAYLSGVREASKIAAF
Procedure: as §1, §2, §3, §4, §5

[9] = target: T9, PHF8 Histone lysine demethylase PHF8 (Q9UPP1) (Homo sapiens, UniProt Q9UPP1); settings: SILAC H/L, HEK293T
T9 construct: In Situ Labelling of Cells with Hydrazine Probes for MS Experiments; endogenous in cells
Procedure: as §1, §2, §3, §4, §5

[10] = target: T10, PLOD2 Procollagenlysine, 2oxoglutarate (O00469) (Homo sapiens, UniProt O00469); settings: SILAC H/L, MDA-MB-231
T10 construct: endogenous in cells; host or cells: HEK293T or MDA-MB-231
T10 sequence (O00469 26-737): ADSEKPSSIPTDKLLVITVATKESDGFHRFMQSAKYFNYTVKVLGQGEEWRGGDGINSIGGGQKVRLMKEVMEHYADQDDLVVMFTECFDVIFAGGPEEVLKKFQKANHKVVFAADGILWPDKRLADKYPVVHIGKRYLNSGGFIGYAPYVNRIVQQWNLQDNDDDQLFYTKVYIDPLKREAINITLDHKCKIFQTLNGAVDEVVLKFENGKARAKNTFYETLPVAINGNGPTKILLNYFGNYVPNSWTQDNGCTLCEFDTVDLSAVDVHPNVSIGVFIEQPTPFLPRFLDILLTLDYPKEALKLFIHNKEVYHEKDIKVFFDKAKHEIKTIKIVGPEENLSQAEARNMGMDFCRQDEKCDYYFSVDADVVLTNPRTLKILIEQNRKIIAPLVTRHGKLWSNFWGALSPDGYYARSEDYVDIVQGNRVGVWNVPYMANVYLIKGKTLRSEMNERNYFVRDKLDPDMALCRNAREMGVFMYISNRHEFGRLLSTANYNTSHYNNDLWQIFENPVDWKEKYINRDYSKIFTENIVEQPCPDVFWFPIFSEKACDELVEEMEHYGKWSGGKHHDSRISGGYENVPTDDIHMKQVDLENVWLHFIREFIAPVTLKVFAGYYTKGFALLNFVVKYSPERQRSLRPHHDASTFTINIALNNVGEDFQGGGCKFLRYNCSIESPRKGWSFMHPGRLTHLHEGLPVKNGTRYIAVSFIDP
Procedure: as §1, §2, §3, §4, §5

[11] = target: T11, PYROXD2 Pyridine nucleotidedisulfide (Q8N2H3) (Homo sapiens, UniProt Q8N2H3); settings: SILAC H/L, MDA-MB-231
T11 construct: In Situ Labelling of Cells with Hydrazine Probes for MS Experiments; endogenous in cells; host or cells: HEK293T and/or MDA-MB-231
T11 sequence (Q8N2H3 whole entry): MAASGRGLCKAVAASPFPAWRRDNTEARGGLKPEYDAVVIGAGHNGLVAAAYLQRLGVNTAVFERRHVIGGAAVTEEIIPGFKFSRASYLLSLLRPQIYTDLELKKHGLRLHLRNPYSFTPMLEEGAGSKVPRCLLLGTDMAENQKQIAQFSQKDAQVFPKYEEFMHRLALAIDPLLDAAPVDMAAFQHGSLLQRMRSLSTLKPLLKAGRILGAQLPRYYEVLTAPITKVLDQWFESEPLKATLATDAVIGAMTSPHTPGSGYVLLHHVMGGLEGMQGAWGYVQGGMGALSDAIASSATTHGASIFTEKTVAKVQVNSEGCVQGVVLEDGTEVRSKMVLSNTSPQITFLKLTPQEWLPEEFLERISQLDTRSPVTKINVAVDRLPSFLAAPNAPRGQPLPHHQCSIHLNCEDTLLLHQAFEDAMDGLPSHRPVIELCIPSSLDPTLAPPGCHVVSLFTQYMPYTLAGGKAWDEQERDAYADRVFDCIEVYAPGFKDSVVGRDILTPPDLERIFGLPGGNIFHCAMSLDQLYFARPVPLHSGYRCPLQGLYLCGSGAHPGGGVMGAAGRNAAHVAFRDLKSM
Procedure: as §1, §2, §3, §4, §5

[12] = target: T12, RAB14 Rasrelated protein Rab14 (P61106) (Homo sapiens, UniProt P61106); settings: SILAC H/L, MDA-MB-231
T12 construct: endogenous in cells; host or cells: HEK293T or MDA-MB-231
T12 sequence (P61106 whole entry): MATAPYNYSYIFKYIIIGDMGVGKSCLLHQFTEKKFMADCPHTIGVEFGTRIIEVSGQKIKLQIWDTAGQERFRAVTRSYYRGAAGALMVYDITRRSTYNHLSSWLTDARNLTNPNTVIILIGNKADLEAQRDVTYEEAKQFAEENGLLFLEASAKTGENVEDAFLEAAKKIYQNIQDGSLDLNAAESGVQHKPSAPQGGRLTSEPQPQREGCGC
Procedure: as §1, §2, §3, §4, §5

[13] = target: T13, RRM2B Ribonucleosidediphosphate reductase (Q7LG56) (Homo sapiens, UniProt Q7LG56); settings: SILAC H/L, MDA-MB-231
T13 construct: endogenous in cells; host or cells: HEK293T or MDA-MB-231
Procedure: as §1, §2, §3, §4, §5

[14] = target: T14, SCD AcylCoA desaturase (O00767) (Homo sapiens, UniProt O00767); settings: SILAC H/L, HEK293T
T14 construct: In Situ Labelling of Cells with Hydrazine Probes for MS Experiments; endogenous in cells
T14 sequence (O00767 whole entry): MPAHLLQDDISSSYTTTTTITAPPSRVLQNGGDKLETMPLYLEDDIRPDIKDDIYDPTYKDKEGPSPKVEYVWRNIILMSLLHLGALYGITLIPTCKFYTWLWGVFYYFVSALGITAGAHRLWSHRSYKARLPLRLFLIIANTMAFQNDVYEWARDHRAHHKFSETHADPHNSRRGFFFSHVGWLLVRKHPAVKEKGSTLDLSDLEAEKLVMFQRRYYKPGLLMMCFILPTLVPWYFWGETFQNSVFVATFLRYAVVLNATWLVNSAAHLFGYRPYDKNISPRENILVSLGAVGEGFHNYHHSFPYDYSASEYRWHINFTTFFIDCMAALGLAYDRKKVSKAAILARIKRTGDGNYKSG
Procedure: as §1, §2, §3, §4, §5

enrichment ratioavg ([1]; probe 2 1 mM 0.5 h vs probe 4): 6 | competition ratioavg ([1]; probe 2 vs probe 2+10x probe 4): 2 | enrichment ratioavg ([2]; probe 2 1 mM 0.5 h vs probe 4): 19 | competition ratioavg ([2]; probe 2 vs probe 2+10x probe 4): 2 | enrichment ratioavg ([3]; probe 2 1 mM 0.5 h vs probe 4): 20 | competition ratioavg ([3]; probe 2 vs probe 2+10x probe 4): 1 | enrichment ratioavg ([4]; probe 2 1 mM 0.5 h vs probe 4): 20 | competition ratioavg ([4]; probe 2 vs probe 2+10x probe 4): 8 | enrichment ratioavg ([5]; probe 2 1 mM 0.5 h vs probe 4): 14 | competition ratioavg ([5]; probe 2 vs probe 2+10x probe 4): 6 | enrichment ratioavg ([6]; probe 2 1 mM 0.5 h vs probe 4): 20 | competition ratioavg ([6]; probe 2 vs probe 2+10x probe 4): 4 | enrichment ratioavg ([7]; probe 2 1 mM 0.5 h vs probe 4): 7 | competition ratioavg ([7]; probe 2 vs probe 2+10x probe 4): 3 | enrichment ratioavg ([8]; probe 2 1 mM 0.5 h vs probe 4): 17 | competition ratioavg ([8]; probe 2 vs probe 2+10x probe 4): 2 | enrichment ratioavg ([9]; probe 2 1 mM 0.5 h vs probe 4): 20 | competition ratioavg ([9]; probe 2 vs probe 2+10x probe 4): 15 | enrichment ratioavg ([10]; probe 2 1 mM 0.5 h vs probe 4): 6 | competition ratioavg ([10]; probe 2 vs probe 2+10x probe 4): 2 | enrichment ratioavg ([11]; probe 2 1 mM 0.5 h vs probe 4): 20 | competition ratioavg ([11]; probe 2 vs probe 2+10x probe 4): 20 | enrichment ratioavg ([12]; probe 2 1 mM 0.5 h vs probe 4): 5 | competition ratioavg ([12]; probe 2 vs probe 2+10x probe 4): 3 | enrichment ratioavg ([13]; probe 2 1 mM 0.5 h vs probe 4): 7 | competition ratioavg ([13]; probe 2 vs probe 2+10x probe 4): 2 | enrichment ratioavg ([14]; probe 2 1 mM 0.5 h vs probe 4): 20 | competition ratioavg ([14]; probe 2 vs probe 2+10x probe 4): 9
Structure (SMILES): C#CCCNC(=O)c1ccc(NN)cc1.Cl [probe 2, N-(but-3-yn-1-yl)-4-hydrazinylbenzamide hydrochloride]
